# Measured values as given in US20260130372A1 (SYNGENTA CROP PROTECTION AG, priority 2022, published 2026).
# Tests used:
# [1] = test system: Botrytis cinerea; assay: liquid culture assay, 96well plate, photometric growth inhibition; type: cell-based
# Protocol: (§1) Streptimidone (CAS: 738-72-7) was purchased from a commercial vendor. A stock solution for streptimidone was produced in DMSO (max. 10 mg/ml). Malonomicin was produced according to Law et al, 2018 (Nature Catalys is |VOL 1|December 2018|977-984). A stock solution of malonomicin was produced in water plus 0.025% Tween20.
# Assays to test efficacy of mixtures of streptimidone in combination with malonomicin on the control of fungal pathogens in a liquid culture assay were designed for a 96well plate.
# Table1: outline of 96well testplate including concentration of compounds per well. The upper number in the cell indicates malonomicin concentration (ppm), the lower number streptimidone concentration (ppm). Column (1) holds a dilution series of streptimidone, row (H) holds a dilution series of malonomicin, column (12) holds cells representing untreated check.
# The 96 well plate design allows to compare disease control of the mixture with disease control of the respective single compound at the same rate.
# A master plate with 10× concentrated solution of the compound stock solutions diluted in water plus 0.025% Tween20 was prepared. The concentration of DMSO (from the stock of streptimidone) and Tween20 was kept constant in all cells of the master plate. 10 μl was transferred from the master plate to a 96well test plate. The nutrient broth containing the fungal spores/mycelia fragments was then added to the test plate to give an end concentration of 1× for the tested compounds (as outlined in table 1). The test plates were incubated in the dark at […] and 96% rh. The inhibition of fungal growth was determined photometrically after ca 3 days, and percent fungal growth reduction relative to the untreated check was calculated. Efficacy of the mixtures was tested on a fungal species: Botrytis cinerea (EPPO code: BOTRCI)
# Conidia of the fungus from cryogenic storage were directly mixed into nutrient broth (Vogel's minimal media).
# [2] = test system: Puccinia recondita; assay: leaf disc assay on wheat leaf segments, preventive spray timing; type: in vivo
# Protocol: as §1, with “1|DECEMBER” for “1|December”
# (§2) Assays to test efficacy of mixtures of streptimidone in combination with malonomicin on the control of fungal pathogens in a leaf disc assay were designed for two 24well plates.
# (§3) Table 5 and table 6: Outline of 24well testplate(1) and testplate(2) including concentration of compounds sprayed per well. The upper number in the cell indicates streptimidone concentration (ppm), the lower number malonomicin concentration (ppm). Column (1) holds a dilution series of streptimidone, row (2-D) holds a dilution series of malonomicin. Well 2-D-(1) represents an untreated check. This design was applied for tests including Puccinia recondita (EPPO code: PUCCRE) with preventive and curative spray timing.
# (§4) A first set of master plates with 1× concentrated spray solution of the streptimidone stock diluted in water with concentrations according to table 5 or table 6, respectively, was prepared. Each well contained 2% DMSO and 0.025% Tween20. Accordingly, a second set of master plates with 1× concentrated malonomicin stock diluted in water was prepared. Each well of the second set contained 0.025% Tween20. Leaf segments placed on agar in 24well plates are sprayed with 8 ul of solution from the master plate containing streptimidone and the leaf segments were let to dry, followed 2 hours later by 8 ul of solution from the master plate containing malonomicin. After second sprays have dried, leaf segments are infected with fungal spores to obtrain a preventive application timing. Alternativeley, leaf segments infected one day before spray of the compounds are used, resulting in a curative spray timing. In addition, several plates were produced where leaf segments were sprayed 2× in absence of test compound (with only DMSO and Tween20), representing the untreated check samples. For each leaf segment percent leaf coverage of disease symptoms was assessed. Percent leaf coverage reduction relative to the untreated check was calculated. Efficacy of the mixtures was tested in duplicate and on different fungal species. Reported efficacy values are the average of two replicate results.
# Puccinia recondita (EPPO Code: PUCCRE) with Preventive Spray Timing.
# Wheat (cultivar Kanzler) leaf segments are placed on agar in multiwell plates (24-well format) and sprayed with test solutions (8 ul per well). After drying, the leaf disks are inoculated with a spore suspension of the fungus. After appropriate incubation the activity of a compound is assessed 8 dpi (days after inoculation) as preventive fungicidal activity.
# [3] = test system: Puccinia recondita; assay: leaf disc assay on wheat leaf segments, curative spray timing; type: in vivo
# Protocol: as §1, with “1|DECEMBER” for “1|December”
# as §2, §3, §4
# Puccinia recondita (EPPO Code: PUCCRE) with Curative Spray Timing.
# Wheat (cultivar Kanzler) leaf segments are placed on agar in multiwell plates (24-well format). The leaf disks are then inoculated with a spore suspension of the fungus. One day after inoculation the test solution is sprayed (8 ul per well). After appropriate incubation the activity of a compound is assessed 8 dpi (days after inoculation) as curative fungicidal activity
smiles,measurement,setting,value
"NC[C@@H]1NC(=O)C(C(=O)CC(NC(=O)[C@@H](N)CO)(C(=O)O)C(=O)O)=C1O [malonomicin, {[(2S)-2-amino-3-hydroxypropanoyl]amino}{2-[(5S)-5-(aminomethyl)-4-hydroxy-2-oxo-2,5-dihydro-1H-pyrrol-3-yl]-2-oxoethyl}malonic acid]",control of fungal growth,"[1]; well H(2), malonomicin 1000 ppm solo",70%
same,control of fungal growth,"[1]; well H(3), malonomicin 500 ppm solo",70%
same,control of fungal growth,"[1]; well H(4), malonomicin 250 ppm solo",70%
same,control of fungal growth,"[1]; well H(5), malonomicin 125 ppm solo",70%
same,control of fungal growth,"[1]; well H(6), malonomicin 62.5 ppm solo",70%
same,control of fungal growth,"[1]; well H(7), malonomicin 31.25 ppm solo",50%
same,control of fungal growth,"[1]; well H(8), malonomicin 15.63 ppm solo",0%
same,control of fungal growth,"[1]; well H(9), malonomicin 7.81 ppm solo",0%
same,control of fungal growth,"[1]; well H(10), malonomicin 3.00 ppm solo",0%
same,control of fungal growth,"[1]; well H(11), malonomicin 1.00 ppm solo",0%
same,control of fungal growth (reduction of symptoms on the leaf segment),"[2]; well 2-D(2), malonomicin 200 ppm solo",100%
same,control of fungal growth (reduction of symptoms on the leaf segment),"[2]; well 2-D(3), malonomicin 20 ppm solo",100%
same,control of fungal growth (reduction of symptoms on the leaf segment),"[2]; well 2-D(4), malonomicin 6.67 ppm solo",80%
same,control of fungal growth (reduction of symptoms on the leaf segment),"[2]; well 2-D(5), malonomicin 2.22 ppm solo",10%
same,control of fungal growth (reduction of symptoms on the leaf segment),"[2]; well 2-D(6), malonomicin 0.74 ppm solo",0%
same,control of fungal growth (reduction of symptoms on the leaf segment),"[3]; curative, well 2-D(2), malonomicin 200 ppm solo",100%
same,control of fungal growth (reduction of symptoms on the leaf segment),"[3]; curative, well 2-D(3), malonomicin 20 ppm solo",100%
same,control of fungal growth (reduction of symptoms on the leaf segment),"[3]; curative, well 2-D(4), malonomicin 6.67 ppm solo",100%
same,control of fungal growth (reduction of symptoms on the leaf segment),"[3]; curative, well 2-D(5), malonomicin 2.22 ppm solo",70%
same,control of fungal growth (reduction of symptoms on the leaf segment),"[3]; curative, well 2-D(6), malonomicin 0.74 ppm solo",35%
"C=C/C(C)=C/[C@H](C)C(=O)C[C@H](O)CC1CC(=O)NC(=O)C1 [streptimidone, Streptimidone]",control of fungal growth,"[1]; well A(1), streptimidone 100 ppm solo",0%
same,control of fungal growth,"[1]; well B(1), streptimidone 50 ppm solo",0%
same,control of fungal growth,"[1]; well C(1), streptimidone 25 ppm solo",0%
same,control of fungal growth,"[1]; well D(1), streptimidone 12.5 ppm solo",0%
same,control of fungal growth,"[1]; well E(1), streptimidone 6.25 ppm solo",0%
same,control of fungal growth,"[1]; well F(1), streptimidone 3.125 ppm solo",0%
same,control of fungal growth,"[1]; well G(1), streptimidone 1.56 ppm solo",0%
same,control of fungal growth (reduction of symptoms on the leaf segment),"[2]; well 1-A(1), streptimidone 200 ppm solo",10%
same,control of fungal growth (reduction of symptoms on the leaf segment),"[2]; well 1-B(1), streptimidone 100 ppm solo",35%
same,control of fungal growth (reduction of symptoms on the leaf segment),"[2]; well 1-C(1), streptimidone 50 ppm solo",0%
same,control of fungal growth (reduction of symptoms on the leaf segment),"[2]; well 1-D(1), streptimidone 25 ppm solo",0%
same,control of fungal growth (reduction of symptoms on the leaf segment),"[2]; well 2-A(1), streptimidone 12.5 ppm solo",10%
same,control of fungal growth (reduction of symptoms on the leaf segment),"[2]; well 2-B(1), streptimidone 6.25 ppm solo",0%
same,control of fungal growth (reduction of symptoms on the leaf segment),"[2]; well 2-C(1), streptimidone 3.13 ppm solo",0%
same,control of fungal growth (reduction of symptoms on the leaf segment),"[3]; curative, well 1-A(1), streptimidone 200 ppm solo",20%
same,control of fungal growth (reduction of symptoms on the leaf segment),"[3]; curative, well 1-B(1), streptimidone 100 ppm solo",20%
same,control of fungal growth (reduction of symptoms on the leaf segment),"[3]; curative, well 1-C(1), streptimidone 50 ppm solo",25%
same,control of fungal growth (reduction of symptoms on the leaf segment),"[3]; curative, well 1-D(1), streptimidone 25 ppm solo",35%
same,control of fungal growth (reduction of symptoms on the leaf segment),"[3]; curative, well 2-B(1), streptimidone 6.25 ppm solo",0%
same,control of fungal growth (reduction of symptoms on the leaf segment),"[3]; curative, well 2-C(1), streptimidone 3.13 ppm solo",0%
same,control of fungal growth (reduction of symptoms on the leaf segment),[3]; in vivo,0%
